Experimental data: patent publication US6733998B1, “Micromonospora echinospora genes coding for biosynthesis of calicheamicin and self-resistance thereto” (priority 1998, dated 2004)

Experiments:
HT1080 (human) cell line = experiment: Calicheamicin resistance on transgenic expression of calC in HT1080 cell line; type: cell-based
Text: The present invention provides for the transformation of human cells with the calC gene. The transgenic expression of calC in the HT1080 (human) cell line increased its resistance to calicheamicin 10-fold. This technique allows bone marrow cells, for example, to be removed from a patient being treated with calicheamicin, and for these cells to be transformed with calC, and for the transformed cells to be returned to the patient. This allows the patient to tolerate treatment with calicheamicin or allows the patient to receive higher doses of calicheamicin as the returned human-calC-transformed cells have calicheamicin resistance. The transformation is performed by methods known in the art. The embodiment of the invention would be applicable to many diseases being treated with calicheamicin.

[1] = system: break light A (calicheamicin recognition sequence 5′-TCCT-3′); experiment: Molecular break light assay, break light A; type: biochemical; settings: for Maximum fluorescence obtained upon cleavage of break light A: excess DTT
Text: (§1) The invention further provides for a method of assaying the calicheamicin-induced DNA cleavage and its CalC-mediated inhibition using the molecular break light assay. Two molecular break lights (MLBs) for the experiments are described in example 7. Break light A is comprised of a 10-base pair stem which contained the known calicheamicin recognition sequence 5′-TCCT-3′, while break light B carries the BamHI endonuclease recognition sequence 5′-GGATCC-3′. The 5′-fluorophore of both probes was fluorescein (FAM, absorbancemax=485 nm, emissionmax=517 nm) while the corresponding 3′-quencher was 4-(4′-dimethylaminophenylazo)benzoic acid (DABCYL). Generally, MLBs operate by a separation of the fluorophore-quencher pair resulting a corresponding fluorescent signal.
(§2) The invention further provides for a method of assaying the calicheamicin-induced DNA cleavage and its CalC mediated inhibition using the molecular break light assay. Break light A was comprised of a 10-base pair stem which contained the known calicheamicin recognition sequence 5′-TCCT-3′, while break light B carried the BamHI endonuclease recognition sequence 5′-GGATCC-3′. […] The loop of both probes consisted of a T4 loop to ensure non-hybridizing interactions. The 5′-fluorophore of both probes was fluorescein (FAM, absorbancemax=485 nm, emissionmax=517 nm) while the corresponding 3′-quencher was 4-(4′-dimethylaminophenylazo)benzoic acid (DABCYL). Previous studies have shown DABCYL to serve as a universal quencher in molecular beacons and there is significant spectral overlap (1.02×10^−15 M^−1 cm^3) between the emission spectrum of FAM and the absorption spectrum of DABCYL.
Enzymalic Cleavage as Proof of Principle. […] Specifically, only break light B should cleave in the presence of the restriction endonuclease BamHI while both A and B should be digested by the non-specific nuclease DNaseI. […] In comparison, control samples containing break lights alone or break lights in the presence of BSA gave no change in fluorescence over >2 hr at 37° C. Given the lack of fluorescence in the absence of enzyme, the designed break lights show no appreciable melting at the designated assay temperature.
Enediyne-Catalyzed Cleavage. Previous assays for enediyne cleavage of DNA relied upon discontinuous assays using radioactive DNA probes, electrophoresis and subsequent phosphoimager analysis. In contrast, by using break lights one can directly follow the extent of DNA cleavage by a specific enediyne in real time with high sensitivity. […] Under the conditions described, this assay allows the detection of 1 in the pM range. This sensitivity compares to that of the biochemical induction assay (BIA), the method of choice in detecting DNA-damaging agents. […] This supports the view that the specificity of 1 is more dependent upon context and perhaps less so on DNA sequence. It should also be noted that 1 leads to predominately double-stranded cleavage while 2 provides single-stranded nicks and the current molecular break light assay can not distinguish these two phenomena.
CalC inhibits calicheamicin mediated DNA cleavage. […] 3.6 pM break light A is coincubated with 3.5 nM calicheamicin with increasing amounts of CalC (0.0 nm, 1.3 nm, 2.6 nm, 3.9 nm, 5.2 nm). Complete inhibition of calicheamicin is achieved with roughly 2-fold excess of CalC. CalC has no effect on esperamicin-induced cleavage of DNA (data not shown).

CalC = experiment: Interaction of calicheamicin with CalC measured by CalC tryptophan fluorescence; type: binding, Micromonospora echinospora
Text: CalC has 5 tryptophan and no cysteine residues and is unaffected by the reductive activator dithiothreitol (DTT). As the concentration of calicheamicin (3) increases in the absence of DTT there is little change in the CalC Trp fluorescence intensity.

[2] = system: break light B (BamHI recognition sequence 5′-GGATCC-3′); experiment: Molecular break light assay, break light B; type: biochemical
Text: as §1
as §2, with “Previous studies have shown DABCYL to serve as a universal quencher in molecular beacons and there is significant spectral overlap (1.02×10^−15 M^−1 cm^3) between the emission spectrum of FAM and the absorption spectrum of DABCYL.” left out
Enzymalic Cleavage as Proof of Principle. […] In comparison, control samples containing break lights alone or break lights in the presence of BSA gave no change in fluorescence over >2 hr at 37° C. Given the lack of fluorescence in the absence of enzyme, the designed break lights show no appreciable melting at the designated assay temperature.
Consistent with this finding, PAGE analysis of the reaction products confirmed the presence of a […] after excess treatment with BamHI which is completely degraded upon DNaseI digestion. As a result, the fluorescence maxium observed with excess BamHI was designated 100% cleavage for the BamHI kinetic studies described below. […]

S. lividans = experiment: Calicheamicin resistance on transgenic expression of calC in S. lividans; type: cell-based
Text: (§3) DNA containing calC was cloned into an inducible vector, using known methods, resulting in overexpression of calC. The polypeptide product (CalC) was then isolated and purified to homogeneity. […] Another aspect of the invention is an expression vector containing calC or a fragment of calC coding for a bioactive molecule. There is also provided a transformed host cell, preferably bacteria, more preferably E. coli, containing calC or a fragment of calC coding for a bioactive molecule. Such transgenic expression of calC results in an 10^5-fold increase in calicheamicin resistance in E. coli, a 100-fold increase in resistance in S. lividans, and a 50-fold increase in resistance in yeast.

E. coli [3] = experiment: Growth of cosmid/plasmid-carrying clones on LB plates containing calicheamicin (maximum tolerated concentration); type: cell-based; settings: for Maximum tolerated concentration of calicheamicin: LB plates
Description: To isolate the gene(s) responsible for calicheamicin resistance in Micromonospora, clones conferring calicheamicin resistance were selected by growth of a Micromonospora genomic bifunctional cosmid library on LB plates containing ampicillin (50 μg ml^−1) and calicheamicin (0.25 μg ml^−1). […] Restriction mapping of these clones localized the desired phenotype to a ˜2kb PstI-SacI fragment of DNA. (FIG. 2). Maximum tolerated concentrations of calicheamicin on the LB plates was ascertained. The results are as follows:
The proximal 1 kb of this fragment carried the single orf calD while the distal 1 kb presented orf calC. […] Therefore, it was hypothesized that calD was not responsible for calicheamicin resistance. To rule out calD as being responsible for calicheamicin resistance, a subclone was engineered (pJT1224) to contain an intact calD, but the truncated calC gene. This subclone was not able to confer resistance to calicheamicin. Next, a subclone containing the calC region was constructed (pJT1232). This clone conferred calicheamicin resistance, as indicated in the above chart.
To ascertain the amino acid sequence of CalC and learn its properties, calC was cloned into a pMAL-C2 vector. (pMAL-C2 by itself could not confer calicheamicin resistance. See above chart.) The resulting plasmid, pRE7, which contained calC, conferred resistance to calicheamicin. See above chart. Plasmid pRE7 was then induced with isopropyl Beta-D-thiogalactoside (“IPTG”) to overexpress CalC. Induced pRE7 conferred resistance to calicheamicin and produced a maltose-binding protein CalC fusion protein (mbp-CalC). This resulting overexpression of CalC increased calicheamicin resistance 10^2-fold in vivo. See above chart.

E. coli [4] = experiment: Calicheamicin resistance on transgenic expression of calC in E. coli; type: cell-based
Text: as §3

[5] = system: supercoiled pBlusecript plasmid DNA; experiment: In vitro calicheamicin-induced DNA cleavage assay (agarose gel); type: biochemical
Description: To test this theory, preliminary assays were performed with supercoiled pBlusecript plasmid DNA (“pBS”) as the template, and dithiothreitol (“DTT”) as the reductive initiator. In a typical assay, purified mbp-CalC (15.0 nM) and 30.0 nM calicheamicin were preincubated for 15 min. in a total volume of 25 μL 40 mM Tris-Cl, pH 7.5, at 37° C. Then 2.5 μL 10 mM DTT stock solution was added to the assay solution, and the assay was incubated an additional 1 hour at 37° C. DNA fragmentation was assessed by electrophoresis on a 1% agarose gel stained with ethidium bromide.
Reconstitution of apo-mbp-CalC was accomplished by preincubation with 1 mM FeSO4 (Fe^+2) or FeCl3 (Fe^+3) prior to the activity assay as previously described.

yeast = experiment: Calicheamicin resistance on transgenic expression of calC in yeast; type: cell-based
Text: as §3

calicheamicin was tested, and the “Increase in resistance to calicheamicin on transgenic expression of calC” value (HT1080 (human) cell line) was 10 fold, the “Maximum fluorescence obtained upon cleavage of break light A” value ([1]; 3.2 nM break light A, 37° C.) was “identical to that observed with DNaseI” and the “Binding to CalC (CalC Trp fluorescence intensity)” value (CalC; addition of DTT to activate calicheamicin) was “increased binding”. The “Change in CalC Trp fluorescence intensity” value (CalC; increasing calicheamicin concentration, absence of DTT) was “little change”, the “Rate of cleavage of molecular break light B compared with break light A” value [2] was “identical rate” and the “Increase in calicheamicin resistance on transgenic expression of calC” value (S. lividans) was 100 fold. The “Maximum tolerated concentration of calicheamicin” value (“Maximum tolerated concentration” below) (E. coli [3]; cosmids 3a, 4a, 10a, 13a, and 16a) was 0.5 µg/mL, the “Maximum tolerated concentration” value (E. coli [3]; induced pRE7 (IPTG)) was 50.0 µg/mL and the “Maximum tolerated concentration” value (E. coli [3]; pJT1214 and pJT1232) was 5.0 µg/mL. For the same molecule, the “Maximum tolerated concentration” value (E. coli [3]; pJT1224, pAP6, Pre1, and control plasmids pUC18, pBluescript, and pMAL-C2) was under 0.01 µg/mL, the “Maximum tolerated concentration” value (E. coli [3]; pRE7 (calC in pMAL-C2)) was 20.0 µg/mL and the “Increase in calicheamicin resistance on overexpression of CalC” value (E. coli [3]; induced pRE7, in vivo) was 10^2 fold. For the same molecule, the “Increase in calicheamicin resistance on transgenic expression of calC” value (E. coli [4]) was 10^5 fold, the DNA cleavage ([5]; in the absence of DTT) was “no DNA cleavage” and the DNA cleavage ([5]; in the presence of DTT and calicheamicin) was “efficient cleavage”. For the same molecule, the “Increase in calicheamicin resistance on transgenic expression of calC” value (yeast) was 50 fold.

esperamicin was tested, and the “Maximum fluorescence obtained upon cleavage of break light A” value ([1]; 3.2 nM break light A, 37° C.) was “identical to that observed with DNaseI”.

B1: CalC: polypeptide conferring calicheamicin resistance, 181 amino acids, SEQ ID. NO. 2 (protein)
chain: MTQEKTAPAAKSTTTKSTAAKKPKPPNYDPFVRHSVTVKADRKTAFKTFLEGFPEWWPNNFRTTKVGAPLGVDKKGGRWYEIDEQGEEHTFGLIRKVDEPDTLVIGWRLNGFGRIDPDNSSEFTVTFVADGQKKTRVDVEHTHFDRMGTKHAKRVRNGMDKGWPTILQSFQDKIDEEGAKK
modifications: Bacteria
With B1 the “Effect on esperamicin-induced cleavage of DNA” value [1] was “no effect”, the “Excess of CalC giving complete inhibition of calicheamicin-mediated DNA cleavage” value ([1]; 3.6 pM break light A, 3.5 nM calicheamicin) was “roughly 2 fold” and the “Inhibition of calicheamicin mediated DNA cleavage” value ([1]; CalC in a two-fold molar excess of calicheamicin) was “completely abolishes”.

B2: BamHI: restriction endonuclease (protein, UniProt P23940 1-213, looked up)
Type II restriction enzyme …: MEVEKEFITDEAKELLSKDKLIQQAYNEVKTSICSPIWPATSKTFTINNTEKNCNGVVPIKELCYTLLEDTYNWYREKPLDILKLEKKKGGPIDVYKEFIENSELKRVGMEFETGNISSAHRSMNKLLLGLKHGEIDLAIILMPIKQLAYYLTDRVTNFEELEPYFELTEGQPFIFIGFNAEAYNSNVPLIPKGSDGMSKRSIKKWKDKVENK
For B2, the “Change of fluorescence over time” value ([1]; 3.2 nM break light A, 37° C.) was “no change”, the “Change of fluorescence over time” value ([2]; 3.2 nM break light B, 37° C.) was “increase of fluorescence” and the “Fluorescence maximum intensity upon complete cleavage, relative to that observed with DNaseI” value ([2]; same concentration of molecular break light) was 75%.
